Experimental data from US10041936B2, “Neuronal cells cultured on microparticles and methods of using same” (The Regents of the University of California, priority 2009, dated 2018).

Tested on: Rat hippocampal neurons
Test: Culture of hippocampal neurons on PLL-coated beads in media with mitotic inhibitor
Type: cell-based
Procedure: Borosilicate Glass Spheres (MO-SCI Specialty Products, Rolla, Mo.) were sterilized in an ethanol solution overnight, and dried under vacuum. Then the beads were incubated in a borate buffer solution for one hour, before being left in PLL solution overnight. Hippocampi were removed from embryonic day 18 (E18) rats and treated with trypsin for 20 min at 37° C., followed by washing and trituration. Dissociated cells were plated at 75,000 cells/cm^2 on poly-lysine-coated glass beads and cultured in neurobasal medium supplemented with 2 mM Glutamax, 2% FBS, and 2% B-27. Cells were transfected with Lipofectamine 2000 (Invitrogen) or they were infected with lenti virus after 5-15 days after dissociation and analyzed 2-14 days after infection.
Rat hippocampal neurons were selected as model mammalian brain neurons. Following dissection at a late embryonic stage (E18), or early postnatal stage (P4), the neurons were dissociated and cultured on beads coated with poly-L-lysine (PLL) to enhance cell adhesion and to support maturation.(13, 14) The neurons were grown on the beads using standard techniques developed for conventional 2D cultures (Pautot et al., 2008). […] However, a small number of supporting glial cells, which contribute to neuronal development by stimulating neuron growth and maturation, were also present. […]

SMILES: Nc1ccn([C@@H]2O[C@H](CO)[C@@H](O)[C@@H]2O)c(=O)n1 [araC]
- neuron outgrowth and branching (araC added to the culture media, no conditioned media): slowed
- growth of neurons on the beads (araC combined with conditioned media from glial feeder cell cultures, more than 3 weeks): robust growth
